Drawing on PubChem BioAssay (NCI), this text covers TGI and GI50 for 27 compounds.

Structures are written as SMILES. Several values for one entry are separate records, joined by “and”; a condition that tells them apart may be missing. Equal values may be shown once.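 Assay format: 96-well plates, 48-hour exposure. Here, GI50 denotes the concentration required for 50% inhibition of growth. TGI: concentration producing complete growth inhibition.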 Bounds are passed on as bounds.

Assay in all cases: growth of human tumour cells (NCI), 48 h
The test system of assay [1] is HCC-2998 colon.
Assay [2] has as its system NCI-H460 lung.
Assay [3] concerns OVCAR-5 ovarian.
The subject of assay [4] is SF-295 CNS.
Assay [5] concerns SF-539 CNS.
Assay [6] relates to SK-MEL-2 melanoma.
The test system of assay [7] is UACC-257 melanoma.
Assay [8] concerns A498 renal.
Assay [9] concerns HOP-92 NSCLC.
The subject of assay [10] is NCI/ADR-RES ovarian.
Assay [11] has as its system TK-10 renal.
Assay [12] relates to T-47D breast.

Take `COc1cc2c(cc1OC)C(=O)C(C1=C(SC(=N)N)C(=O)c3cc(OC)c(OC)cc31)C2` (stereo unspecified): the TGI in assay [1], in assay [2], in [3], in assay [4], in assay [5] and in assay [6] was > 100 µM each time. The TGI in [7] was > 100 µM.

For the compound `O=C=NCCCCCCN1C(=O)N2C(c3ccccc3)N(CCCCCCN=C=O)C(=O)N2C1c1ccccc1` (stereo unspecified), the TGI in [8], in assay [1], in assay [9], in [2], in assay [10] and in assay [3] was > 100 µM throughout. The TGI in assay [4], in [5], in assay [6], in assay [11] and in assay [7] was > 100 µM each time.

For the compound `C=CCN(C)CN(C)c1nc(N(C)C)nc(N(C)C)n1`, the TGI in assay [8], in assay [1], in [9], in assay [2], in assay [3] and in [4] was > 100 µM each time. Besides, the TGI in assay [5], in assay [6], in [11] and in assay [7] was > 100 µM throughout.

Take `Cn1c2cc(O)cc(O)c2c(=O)c2c([N+](=O)[O-])cccc21`: the TGI in [8], in assay [1], in assay [9], in assay [2], in assay [3] and in assay [4] was > 100 µM each time. For the same compound, the TGI in assay [5], in assay [6], in [11] and in assay [7] was > 100 µM throughout.

On to `COc1ccc2c(c1)CCC1=CC3(CCC12C)SCCS3` (stereo unspecified), for which the TGI in [1], in [9], in assay [10], in assay [4], in assay [12] and in assay [11] was > 10 µM throughout. The TGI in [7] is > 10 µM.

`Cc1c2c(n(CCN(C)C)c1C)NN=C(C#N)S2(=O)=O`: the TGI in assay [1], in assay [2], in assay [10], in assay [3], in assay [5] and in assay [6] was > 100 µM each time. Also, the TGI in assay [12], in assay [11] and in [7] was > 100 µM each time.

In the case of `O=c1cc(-c2ccccc2)oc2cc(OCCSCCCCCCCCCCSCCOc3ccc4c(=O)cc(-c5ccccc5)oc4c3)ccc12`, the TGI in assay [1], in [9], in [4], in assay [6], in assay [11] and in assay [7] was > 100 µM in each case.

As to `O=C(O)CCCOc1cc(-c2ccccc2F)nc2cc3c(cc12)OCO3`, the TGI in [1] was > 100 µM; in [9], 95.6 µM; in [10], > 100 µM; in assay [3], > 100 µM; in assay [5], 63.2 µM; in assay [6], > 100 µM. Moreover, the TGI in [12] and in assay [11] was > 100 µM throughout.

For `O=C(c1cccc(C(=O)c2ccc3c4c(cccc24)C(=O)N(c2ccccc2)C3=O)c1)c1ccc2c3c(cccc13)C(=O)N(c1ccccc1)C2=O`, the TGI in [8] is 69.5 µM; in assay [1], > 100 µM; in assay [9], > 100 µM; in [2] it was > 100 µM; in assay [10] it was > 100 µM; in [3], > 100 µM. Further, the TGI in assay [4], in [5], in assay [11] and in assay [7] was > 100 µM throughout.

For the compound `C/C(=C\c1ccc(Cl)c(Cl)c1)[N+](=O)[O-]`, the GI50 was 8.21 µM in assay [8]; 1.43 µM in [9]; 3.15 µM in assay [2]; 2.25 µM in assay [3]; 2.19 µM in assay [4]; 1.67 µM in assay [11]. For the same compound, the TGI in assay [8] was 21.5 µM and 14.8 µM; in [1], 8.25 µM; in assay [9] it was 2.99 µM; in [2], 14 µM and > 100 µM; in assay [3], 5.09 µM and 4.62 µM; in [4] it was 5.72 µM and 8.01 µM. Besides, the TGI in assay [5] is 5.77 µM; in [6], 4.05 µM and 4.03 µM; in assay [11], 3.19 µM and 3.6 µM; in [7], 2.56 µM and 2.84 µM.

On to `CCOC(=O)c1ccc(-n2c(SCC)nc3sc(C)c(C)c3c2=O)cc1`, for which the TGI in assay [8], in assay [1], in [9], in [2], in assay [3] and in [4] was > 100 µM in each case. Also, the TGI in [5], in assay [6], in assay [11] and in assay [7] was > 100 µM in each case.

Turning to `COc1cc(O)c2c(=O)cc(C3(O)C=CC(=O)C=C3)oc2c1`, the TGI was 11.1 µM in assay [8]; 1.12 µM in assay [1]; 0.493 µM in assay [9]; 2.06 µM in [2]; 18.9 µM in assay [10]; 2.09 µM in assay [4]. Besides, the figures for the TGI in assay [6], in assay [11] and in [7] were 2.66 µM, 0.376 µM and 1.05 µM, respectively.

Regarding `CCCCCCCN1C(=O)C(O)(c2ccc(C3(O)C(=O)N(CCCCCCC)c4ccccc43)s2)c2ccccc21` (stereo unspecified), the TGI in assay [1] amounted to 3.44 µM; in assay [9], 3.55 µM; in assay [2], 3.49 µM; in [3], 3.24 µM; in assay [4] it was 3.42 µM; in assay [5] it was 3.34 µM. Also, the TGI in assay [6] worked out at 2.93 µM; in assay [12], 15 µM; in assay [11] it was 5.67 µM; in assay [7], 4.42 µM.

On to `Cc1cn(C2CC(N)C(C(=O)O)O2)c(=O)[nH]c1=O` (stereo unspecified), for which the TGI in [8], in assay [1], in assay [9], in assay [2], in assay [10] and in assay [3] was > 100 µM in each case. The TGI in [5], in assay [6], in assay [11] and in assay [7] was > 100 µM each time.

Take `CC(C)C(/C=C/c1ccc(Br)cc1)=N\NC(N)=O`: the TGI was 25.7 µM in assay [1]; > 100 µM in assay [9]; > 100 µM in assay [2]; > 100 µM in [3]; > 100 µM in assay [4]; > 100 µM in assay [5]. Further, the TGI in [6], in assay [11] and in [7] was > 100 µM in each case.

Regarding `[N-]=[N+]=NC(CBr)c1cn([C@H]2C[C@H](O)[C@@H](CO)O2)c(=O)[nH]c1=O` (stereo partly specified), the TGI in assay [1], in assay [9], in assay [2], in assay [3], in [4] and in assay [5] was > 100 µM in each case. The TGI in [6] and in assay [11] was > 100 µM each time.

For the compound `COc1cccc(C2C3=C(COC3=O)Oc3cc4c(cc32)OCO4)c1` (stereo unspecified), the TGI in assay [8] was 1.27 µM; in [1], 1.88 µM; in assay [2] it was > 34 µM; in assay [10], > 6.6 µM; in assay [3], > 90 µM; in [4], 0.228 µM. Besides, the TGI in assay [5] is 0.0667 µM; in assay [6], > 100 µM; in [11] it was 93.6 µM; in assay [7] it was > 100 µM.

On to `Cc1ccc(S(=O)(=O)Oc2nc3ccccc3nc2N(S(=O)(=O)c2ccc(C)cc2)S(=O)(=O)c2ccc(C)cc2)cc1`, for which the TGI in assay [8], in assay [1], in assay [2], in assay [10], in assay [3] and in assay [4] was > 100 µM throughout. Moreover, the TGI in [5], in [6], in assay [11] and in assay [7] was > 100 µM each time.

For `O=c1[nH]n(Cc2ccccn2)c2ccc([N+](=O)[O-])cc12`, the TGI in assay [8], in [1], in assay [9], in assay [2], in assay [10] and in assay [3] was > 100 µM throughout. For the same compound, the TGI in assay [5], in assay [6], in assay [11] and in assay [7] was > 100 µM each time.

For `Cc1cc(OCC(=O)N/N=C/C(Br)=C/c2ccccc2)nc(SCC(=O)N/N=C/C(Br)=C/c2ccccc2)n1`, the TGI is > 100 µM in assay [8]; 82.9 µM in assay [1]; 86.4 µM in assay [9]; > 100 µM in assay [2]; > 100 µM in [10]; > 100 µM in assay [3]. Besides, the TGI in assay [4] and in assay [7] was > 100 µM in each case.

Turning to `CSc1nc2[nH]c(=O)c(C)nc2c(=O)[nH]1`, the TGI in assay [8], in [1], in [9], in assay [2], in assay [3] and in [4] was > 100 µM throughout. Moreover, the TGI in assay [6], in assay [11] and in [7] was > 100 µM each time.

With `C=C(Cl)C(=C)CCC(Cl)C(C)C` (stereo unspecified), the TGI in assay [8], in [1], in [9], in assay [2], in [10] and in assay [3] was > 100 µM throughout. For the same compound, the TGI in assay [4], in assay [5], in assay [6], in assay [11] and in assay [7] was > 100 µM each time.

`COc1ccc(C2SC(C)C(=O)N2c2nc(-c3nc(-c4ccc(Cl)cc4)cs3)cs2)cc1` (stereo unspecified): the TGI in assay [1], in assay [9], in [2], in assay [10], in assay [3] and in [4] was > 100 µM in each case. Also, the TGI in assay [5], in [12], in assay [11] and in [7] was > 100 µM throughout.

`COC(=O)[C@@H]1C[C@@H]2c3ccccc3N(S(=O)(=O)c3ccccc3)[C@@H]2N1C(=O)OC`: the TGI in [1], in assay [9], in [2], in assay [10], in [3] and in assay [4] was > 100 µM throughout. In addition, the TGI in assay [5], in assay [6], in assay [11] and in assay [7] was > 100 µM in each case.

`O=C1CC(=O)N(CCc2ccccc2)S(=O)(=O)N1CCc1ccccc1`: the TGI in assay [8] is 34.2 µM; in assay [1], > 100 µM; in assay [9], 32.3 µM; in [2], > 100 µM; in assay [3] it was 64.4 µM; in [4], 35.4 µM. Moreover, the TGI in [5] is 43.5 µM; in assay [6], 48.3 µM; in assay [11], > 100 µM.

Consider `COc1cc(/C=C2/C(=O)N(C(=O)c3ccc(Cl)cc3)N=C2C)cc(OC)c1OC`, for which the TGI in assay [8], in [1], in assay [9], in assay [2], in [3] and in assay [4] was > 100 µM each time. The TGI in [5], in assay [6], in assay [11] and in assay [7] was > 100 µM each time.

For the compound `O=C(O)C12CCCC(CCC1)C2`, the TGI in assay [8], in assay [9], in assay [2], in assay [3], in assay [4] and in assay [5] was > 100 µM each time. The TGI in [6], in assay [11] and in [7] was > 100 µM each time.
